What was measured:
Calcitonin receptor = biological target: T1, Calcitonin receptor (Homo sapiens, UniProt P30988); format: cell membranes, Membrane; conditions: t47d; note: in other assays of this panel Not Active means under 50% inhibition at 10 µM
T1 sequence (P30988 whole entry): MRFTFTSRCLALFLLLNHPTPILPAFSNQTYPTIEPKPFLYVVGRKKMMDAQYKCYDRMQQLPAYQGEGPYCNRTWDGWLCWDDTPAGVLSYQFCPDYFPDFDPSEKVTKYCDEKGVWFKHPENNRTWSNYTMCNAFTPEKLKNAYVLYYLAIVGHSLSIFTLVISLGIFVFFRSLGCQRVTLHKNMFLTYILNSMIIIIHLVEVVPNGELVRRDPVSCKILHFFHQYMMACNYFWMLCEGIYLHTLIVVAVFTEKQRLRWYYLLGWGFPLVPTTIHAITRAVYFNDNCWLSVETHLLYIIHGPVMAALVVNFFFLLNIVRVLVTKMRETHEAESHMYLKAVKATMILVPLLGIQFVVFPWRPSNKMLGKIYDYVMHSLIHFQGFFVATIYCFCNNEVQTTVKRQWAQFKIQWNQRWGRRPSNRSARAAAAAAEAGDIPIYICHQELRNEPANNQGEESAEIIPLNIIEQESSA

[1] = DRUGMATRIX: Phorbol Ester radioligand binding (ligand: [3H] PDBu); format: cell membranes, Mus musculus, ICR, Brain, Membrane; conditions: Not Active = under 50% inhibition at 10 µM
D(1A) dopamine receptor = D(1A) dopamine receptor (Homo sapiens, UniProt P21728); experiment: DRUGMATRIX: Dopamine D1 radioligand binding (ligand: [3H] SCH-23390); format: cell membranes, CHO, Membrane; conditions: cho; Not Active = under 50% inhibition at 10 µM
Chain of D(1A) dopamine receptor (P21728 whole entry): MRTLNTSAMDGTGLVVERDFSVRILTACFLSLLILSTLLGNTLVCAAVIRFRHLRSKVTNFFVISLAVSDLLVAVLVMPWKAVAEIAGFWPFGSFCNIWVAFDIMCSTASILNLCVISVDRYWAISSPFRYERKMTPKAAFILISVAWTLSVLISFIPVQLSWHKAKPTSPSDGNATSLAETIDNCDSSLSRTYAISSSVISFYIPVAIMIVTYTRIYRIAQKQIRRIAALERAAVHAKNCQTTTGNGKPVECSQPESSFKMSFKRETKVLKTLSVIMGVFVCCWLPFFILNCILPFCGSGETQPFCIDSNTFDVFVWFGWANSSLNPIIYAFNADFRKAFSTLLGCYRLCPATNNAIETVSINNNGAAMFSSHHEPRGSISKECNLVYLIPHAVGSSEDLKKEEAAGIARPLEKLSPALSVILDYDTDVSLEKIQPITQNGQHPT

Histamine H2 receptor = Histamine H2 receptor (Homo sapiens, UniProt P25021); format: cell membranes, CHO-K1, Membrane; conditions: cho-k1; note: in other assays of this panel Not Active means under 50% inhibition at 10 µM
Chain of Histamine H2 receptor (P25021 whole entry): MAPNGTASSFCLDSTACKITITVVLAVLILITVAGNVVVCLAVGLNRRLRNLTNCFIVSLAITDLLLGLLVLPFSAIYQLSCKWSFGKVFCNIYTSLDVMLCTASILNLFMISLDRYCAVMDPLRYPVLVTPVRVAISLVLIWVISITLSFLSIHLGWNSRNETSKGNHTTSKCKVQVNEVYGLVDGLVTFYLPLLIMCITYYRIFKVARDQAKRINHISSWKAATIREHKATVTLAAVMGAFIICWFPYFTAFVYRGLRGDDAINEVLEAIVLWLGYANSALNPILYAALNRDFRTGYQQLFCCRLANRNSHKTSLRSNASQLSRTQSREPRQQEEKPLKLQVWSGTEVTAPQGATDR

Adenosine receptor A1 = biological target: T2, Adenosine receptor A1 (Homo sapiens, UniProt P30542); format: cell membranes, CHO, Membrane; conditions: cho;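 note: radioligand binding assay at the adenosine A1 receptor, with DPCPX serving as the labelled ligand; in other assays of this panel Not Active means under 50% inhibition at 10 µM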
T2 sequence (P30542 whole entry): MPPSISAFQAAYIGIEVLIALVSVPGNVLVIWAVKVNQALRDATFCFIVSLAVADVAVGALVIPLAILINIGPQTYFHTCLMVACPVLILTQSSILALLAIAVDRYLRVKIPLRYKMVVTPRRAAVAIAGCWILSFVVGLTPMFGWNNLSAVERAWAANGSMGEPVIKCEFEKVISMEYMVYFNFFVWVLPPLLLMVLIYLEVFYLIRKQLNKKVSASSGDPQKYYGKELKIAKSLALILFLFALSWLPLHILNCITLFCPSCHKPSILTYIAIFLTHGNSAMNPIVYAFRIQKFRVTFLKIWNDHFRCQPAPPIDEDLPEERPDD

[2] = biological target: Mitogen-activated protein kinase 14 (Homo sapiens, UniProt Q16539); parameters: species or system Escherichia coli;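 note: inhibition of p38alpha enzyme activity in a biochemical kinase assay, with myelin basic protein serving as substrate; in other assays of this panel Not Active means under 50% inhibition at 10 µM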
Chain of Mitogen-activated protein kinase 14 (Q16539 whole entry): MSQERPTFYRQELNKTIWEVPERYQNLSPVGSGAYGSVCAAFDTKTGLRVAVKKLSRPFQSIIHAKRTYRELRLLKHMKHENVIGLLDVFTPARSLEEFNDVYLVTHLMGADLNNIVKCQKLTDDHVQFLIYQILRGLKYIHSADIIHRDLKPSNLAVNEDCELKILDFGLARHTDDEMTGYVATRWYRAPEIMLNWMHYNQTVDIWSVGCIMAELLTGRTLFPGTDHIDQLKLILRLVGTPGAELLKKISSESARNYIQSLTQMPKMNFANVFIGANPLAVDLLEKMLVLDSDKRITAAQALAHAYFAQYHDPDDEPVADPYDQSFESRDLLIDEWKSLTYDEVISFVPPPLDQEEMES

[3] = biological target: T3, Polyunsaturated fatty acid lipoxygenase ALOX15 (Oryctolagus cuniculus, UniProt P12530); experiment: biochemical; format: tissue-based, Reticulocytes; conditions: reticulocytes
T3 sequence (P12530 whole entry): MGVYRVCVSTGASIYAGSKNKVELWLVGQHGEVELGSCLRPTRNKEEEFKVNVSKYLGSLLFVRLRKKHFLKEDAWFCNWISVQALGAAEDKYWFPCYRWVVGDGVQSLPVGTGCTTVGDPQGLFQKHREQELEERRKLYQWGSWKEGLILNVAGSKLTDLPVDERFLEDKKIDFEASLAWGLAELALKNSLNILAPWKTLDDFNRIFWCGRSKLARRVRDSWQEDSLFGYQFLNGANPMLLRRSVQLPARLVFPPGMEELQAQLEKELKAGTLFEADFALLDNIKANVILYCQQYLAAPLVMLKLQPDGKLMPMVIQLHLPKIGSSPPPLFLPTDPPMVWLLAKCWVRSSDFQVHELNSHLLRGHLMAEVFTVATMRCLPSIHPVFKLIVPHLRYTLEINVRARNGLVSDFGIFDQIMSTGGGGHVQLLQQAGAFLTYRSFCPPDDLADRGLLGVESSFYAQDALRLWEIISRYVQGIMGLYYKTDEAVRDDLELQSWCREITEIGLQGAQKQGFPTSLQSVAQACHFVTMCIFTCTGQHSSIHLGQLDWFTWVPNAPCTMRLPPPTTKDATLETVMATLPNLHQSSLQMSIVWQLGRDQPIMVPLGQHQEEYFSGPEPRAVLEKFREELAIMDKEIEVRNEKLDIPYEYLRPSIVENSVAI

[4] = DRUGMATRIX: beta-Lactamase enzyme inhibition (substrate: Nitrocefin); parameters: species or system Bacillus cereus; conditions: Not Active = under 50% inhibition at 10 µM
[5] = DRUGMATRIX: Glutamate, Kainate radioligand binding (ligand: [3H] Kainic acid); format: cell membranes, Rattus norvegicus, Wistar, Brain, Membrane; conditions: Not Active = under 50% inhibition at 10 µM
[6] = DRUGMATRIX: Sigma2 radioligand binding (ligand: [3H] Ifenprodil); format: cell membranes, Rattus norvegicus, Wistar, Brain, Membrane; conditions: Not Active = under 50% inhibition at 10 µM
[7] = DRUGMATRIX: Purinergic P2X radioligand binding (ligand: [3H] alpha, beta-Methylene-ATP); format: cell membranes, Oryctolagus cuniculus, New Zealand albino, Urinary bladder, Membrane; conditions: Not Active = under 50% inhibition at 10 µM
[8] = biological target: Beta-1 adrenergic receptor (Homo sapiens, UniProt P08588); experiment: DRUGMATRIX: Adrenergic beta1 radioligand binding (ligand: [125I] Cyanopindolol); format: cell membranes, CHO-K1, Membrane; conditions: cho-k1; Not Active = under 50% inhibition at 10 µM
Chain of Beta-1 adrenergic receptor (P08588 whole entry): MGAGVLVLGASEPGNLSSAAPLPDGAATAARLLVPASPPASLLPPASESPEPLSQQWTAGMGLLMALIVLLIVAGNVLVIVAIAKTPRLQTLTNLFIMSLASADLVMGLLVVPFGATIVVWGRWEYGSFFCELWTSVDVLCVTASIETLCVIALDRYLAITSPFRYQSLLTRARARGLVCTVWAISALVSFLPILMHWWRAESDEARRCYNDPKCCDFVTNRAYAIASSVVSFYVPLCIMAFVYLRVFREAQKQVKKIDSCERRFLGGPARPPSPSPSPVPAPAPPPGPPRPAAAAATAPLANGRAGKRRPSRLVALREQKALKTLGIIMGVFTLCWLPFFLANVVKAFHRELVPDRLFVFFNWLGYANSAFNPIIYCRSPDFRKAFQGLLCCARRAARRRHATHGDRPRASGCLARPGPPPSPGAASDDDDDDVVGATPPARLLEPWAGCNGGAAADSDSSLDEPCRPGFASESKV

[9] = DRUGMATRIX: Platelet-Derived Growth Factor (PDGF) radioligand binding (ligand: [125I] PDGF); format: cell-based; conditions: nih3t3; Not Active = under 50% inhibition at 10 µM
[10] = biological target: T4, Muscarinic acetylcholine receptor M4 (Homo sapiens, UniProt P08173); format: cell membranes, CHO-K1, Membrane; conditions: cho-k1; note: in other assays of this panel Not Active means under 50% inhibition at 10 µM
T4 sequence (P08173 whole entry): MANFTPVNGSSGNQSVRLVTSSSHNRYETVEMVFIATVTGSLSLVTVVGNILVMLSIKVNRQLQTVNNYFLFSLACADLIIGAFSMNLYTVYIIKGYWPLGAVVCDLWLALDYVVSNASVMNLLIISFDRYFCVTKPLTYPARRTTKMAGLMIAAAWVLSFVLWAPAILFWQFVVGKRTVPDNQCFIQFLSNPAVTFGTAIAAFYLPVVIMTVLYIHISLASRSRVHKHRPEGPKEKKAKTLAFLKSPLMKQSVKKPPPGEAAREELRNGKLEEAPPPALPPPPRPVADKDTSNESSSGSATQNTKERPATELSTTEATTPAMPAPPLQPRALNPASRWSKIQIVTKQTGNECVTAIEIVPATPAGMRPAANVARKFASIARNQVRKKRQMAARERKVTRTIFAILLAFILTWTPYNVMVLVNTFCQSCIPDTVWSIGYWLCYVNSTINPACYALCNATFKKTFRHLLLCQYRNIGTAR

CC(=O)[C@H]1CC[C@H]2[C@@H]3CCC4=CC(=O)CC[C@]4(C)[C@H]3CC[C@]12C [PROGESTERONE]
Not Active: IC50 (Calcitonin receptor) | IC50 [1] | Ki [1] | IC50 (D(1A) dopamine receptor) | IC50 (Histamine H2 receptor) | IC50 (Adenosine receptor A1) | IC50 [2] | IC50 [3] | IC50 [4] | Ki [4] | IC50 [5] | Ki [5] | IC50 [6] | Ki [6] | IC50 [7] | Ki [7] | IC50 [8] | IC50 [9] | Ki [9] | IC50 [10]

NC(=O)c1ncn([C@@H]2O[C@H](CO)[C@@H](O)[C@H]2O)n1 [RIBAVIRIN]
Not Active: IC50 (Calcitonin receptor) | IC50 [1] | Ki [1] | IC50 (D(1A) dopamine receptor) | IC50 (Histamine H2 receptor) | IC50 (Adenosine receptor A1) | IC50 [2] | IC50 [3] | IC50 [4] | Ki [4] | IC50 [5] | Ki [5] | IC50 [6] | Ki [6] | IC50 [7] | Ki [7] | IC50 [8] | IC50 [9] | Ki [9] | IC50 [10]

O=[N+]([O-])c1cc([As](=O)(O)O)ccc1O [ROXARSONE]
Not Active: IC50 (Calcitonin receptor) | Ki (Calcitonin receptor) | IC50 [1] | Ki [1] | IC50 (D(1A) dopamine receptor) | Ki (D(1A) dopamine receptor) | IC50 (Histamine H2 receptor) | Ki (Histamine H2 receptor) | IC50 (Adenosine receptor A1) | Ki (Adenosine receptor A1) | IC50 [2] | Ki [2] | IC50 [3] | Ki [3] | IC50 [4] | Ki [4] | IC50 [5] | Ki [5] | IC50 [6] | Ki [6] | IC50 [7] | Ki [7] | IC50 [8] | Ki [8] | IC50 [9] | Ki [9] | IC50 [10] | Ki [10]

CC[C@H]1OC(=O)[C@H](C)[C@@H](O[C@H]2C[C@@](C)(OC)[C@@H](O)[C@H](C)O2)[C@H](C)[C@@H](O[C@@H]2O[C@H](C)C[C@H](N(C)C)[C@H]2O)[C@](C)(O)C[C@@H](C)/C(=N\OCOCCOC)[C@H](C)[C@@H](O)[C@]1(C)O [ROXITHROMYCIN]
Not Active: IC50 (Calcitonin receptor) | IC50 [1] | Ki [1] | IC50 (D(1A) dopamine receptor) | IC50 (Histamine H2 receptor) | IC50 (Adenosine receptor A1) | IC50 [2] | IC50 [3] | IC50 [4] | Ki [4] | IC50 [5] | Ki [5] | IC50 [6] | Ki [6] | IC50 [7] | Ki [7] | IC50 [8] | IC50 [9] | Ki [9] | IC50 [10]

— ChEMBL document CHEMBL1909046, “DrugMatrix in vitro pharmacology data”
